The text below walks through data of PubChem BioAssay (NCI).

Among the test systems are CCRF-CEM leukemia; SF-268 CNS; NCI-H23 lung; LOX IMVI melanoma; ACHN renal; A498 renal; HT29 colon; NCI-H460 lung; NCI-H522 lung; HOP-62 NSCLC.
Experiment in all cases: inhibition of tumour cell growth, NCI panel, 48 h

The structures appear in SMILES notation.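 How tested: cells in 96-well plates exposed to compound for 48 hours at five concentrations. GI50 is the concentration that inhibits growth by half. TGI is the concentration that stops growth completely.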 Bounds are passed on as bounds.

With `CN(C)C(=S)SN(C)C(=O)Nc1ccccc1`, the TGI was over 91.1 µM in the assay on CCRF-CEM leukemia; 99.9 µM with SF-268 CNS; over 80.5 µM with NCI-H23 lung; 44.7 µM with LOX IMVI melanoma; over 96.4 µM in the assay on ACHN renal; over 33.8 µM in the assay on A498 renal. The TGI with HT29 colon was 24.4 µM; with NCI-H460 lung, over 53.7 µM; with NCI-H522 lung, 3.5 µM; in the assay on HOP-62 NSCLC, over 100 µM.
Take `COc1ccc(-c2cc3c(nn2)-c2ccccc2C3=O)cc1`: the GI50 is 9.52 µM in the assay on CCRF-CEM leukemia; over 100 µM in the assay with SF-268 CNS; over 100 µM in the assay on NCI-H23 lung; over 100 µM in the assay with LOX IMVI melanoma; over 100 µM in the assay on ACHN renal; over 100 µM in the assay on A498 renal. Also, the GI50 with HT29 colon, in the assay on NCI-H460 lung, in the assay on NCI-H522 lung and with HOP-62 NSCLC was over 100 µM in each case. Further, the TGI in the assay with CCRF-CEM leukemia, in the assay on SF-268 CNS, in the assay with NCI-H23 lung, in the assay on LOX IMVI melanoma, in the assay on ACHN renal and with A498 renal was over 100 µM throughout. The TGI in the assay on HT29 colon, in the assay on NCI-H460 lung, in the assay with NCI-H522 lung and in the assay on HOP-62 NSCLC was over 100 µM in each case.
For `N#C/C(C(=S)Nc1ccccc1)=C1/NN=C2c3ccccc3C(=O)NN21`, the GI50 was 35.3 µM in the assay on SF-268 CNS; 19.9 µM in the assay with LOX IMVI melanoma; 35.5 µM in the assay on ACHN renal; 21.3 µM with A498 renal; 29.2 µM with HT29 colon; 26.3 µM in the assay with NCI-H460 lung. For the same compound, the GI50 was 11.8 µM in the assay on NCI-H522 lung and 44.4 µM with HOP-62 NSCLC. Moreover, the TGI with SF-268 CNS is over 100 µM; in the assay on LOX IMVI melanoma, 52.8 µM; with ACHN renal, over 100 µM; in the assay on A498 renal it was 53.1 µM; with HT29 colon it was over 100 µM; with NCI-H460 lung, 73.2 µM. Moreover, the TGI in the assay with NCI-H522 lung is 63.3 µM; in the assay on HOP-62 NSCLC it was over 100 µM.
As to `C#CC[C@]12CC(=O)CC[C@H]1CC(=O)C2`, the TGI with CCRF-CEM leukemia, in the assay with SF-268 CNS, with ACHN renal, with A498 renal, in the assay on NCI-H460 lung and in the assay on NCI-H522 lung was over 100 µM each time. For the same compound, the TGI with HOP-62 NSCLC was over 100 µM.
With `NCCCNCCSSCCCCS(=O)O`, the TGI in the assay on SF-268 CNS is 40.6 µM; in the assay with NCI-H23 lung it was 43.5 µM; in the assay with LOX IMVI melanoma, 21.6 µM; with ACHN renal, over 100 µM; in the assay on A498 renal, over 100 µM; in the assay on HT29 colon, over 100 µM. For the same compound, the TGI in the assay with NCI-H460 lung was over 100 µM; in the assay on NCI-H522 lung it was 32.3 µM; in the assay with HOP-62 NSCLC it was over 100 µM.
Turning to `N#CCCN(c1ccc(/C=C2\N=C(c3ccc(Cl)cc3)OC2=O)cc1)S(=O)(=O)c1ccccc1`, the TGI with SF-268 CNS, in the assay with NCI-H23 lung, in the assay with LOX IMVI melanoma, with ACHN renal, in the assay with A498 renal and in the assay with HT29 colon was over 100 µM throughout. The TGI in the assay on NCI-H460 lung, with NCI-H522 lung and with HOP-62 NSCLC was over 100 µM throughout.
Regarding `Cc1ccc(N=NC(C(=O)c2ccccc2)C(=O)c2ccccc2)cc1`, the TGI with CCRF-CEM leukemia was 69.4 µM; with SF-268 CNS it was over 100 µM; with NCI-H23 lung it was 63.2 µM; in the assay with ACHN renal, over 100 µM; in the assay with A498 renal it was over 100 µM; in the assay on HT29 colon, 62.2 µM. In addition, the results for the TGI in the assay on NCI-H522 lung and in the assay with HOP-62 NSCLC were 44.3 µM and 71.9 µM, respectively.
Turning to `CCOC(=O)[C@H]1Nc2ccc(C)cc2C2c3ccccc3CC21` (stereo partly specified), the TGI in the assay with SF-268 CNS, in the assay on NCI-H23 lung, with LOX IMVI melanoma, in the assay on ACHN renal, in the assay with A498 renal and with HT29 colon was over 100 µM each time. The TGI in the assay on NCI-H460 lung, with NCI-H522 lung and in the assay with HOP-62 NSCLC was over 100 µM in each case.
Consider `COc1ccc2cc(C(=O)/C=C/c3cccc(OC)c3OC)ccc2c1`, for which the GI50 with CCRF-CEM leukemia is 5.46 µM; in the assay with SF-268 CNS it was 24.2 µM; in the assay on NCI-H23 lung, 11.2 µM; with ACHN renal, 8.38 µM; in the assay with A498 renal it was 13.3 µM; with HT29 colon, 4.07 µM. Further, the GI50 in the assay on NCI-H460 lung is 18.3 µM; with NCI-H522 lung, 10.2 µM; in the assay with HOP-62 NSCLC, 17.4 µM. Besides, the TGI in the assay on CCRF-CEM leukemia is over 100 µM; with SF-268 CNS, 50.8 µM; in the assay with NCI-H23 lung, 25.3 µM; with ACHN renal, 22.2 µM; in the assay on A498 renal, 26.6 µM; in the assay with HT29 colon, 17.6 µM. The TGI in the assay on NCI-H460 lung came out at 37.5 µM; with NCI-H522 lung, 29.6 µM; in the assay with HOP-62 NSCLC it was 34.5 µM.
As to `O=C(/C=C/c1ccccc1Cl)c1ccccc1Cl`, the TGI in the assay with CCRF-CEM leukemia is 44.9 µM; in the assay on SF-268 CNS, 50.5 µM; in the assay with NCI-H23 lung, 52.9 µM; with ACHN renal it was 31.1 µM; in the assay on A498 renal, over 100 µM; in the assay on HT29 colon, 41.3 µM. Also, the TGI is 36 µM with NCI-H460 lung, 38.1 µM with NCI-H522 lung and over 100 µM in the assay on HOP-62 NSCLC.
Consider `N#CCCN(CCC#N)c1ccc(/C=C2\N=C(CN3C(=O)c4ccccc4C3=O)OC2=O)cc1`, for which the TGI in the assay with SF-268 CNS, in the assay on LOX IMVI melanoma, in the assay with ACHN renal, in the assay with A498 renal, with HT29 colon and in the assay with NCI-H460 lung was over 100 µM throughout. Further, the TGI with NCI-H522 lung and with HOP-62 NSCLC was over 100 µM throughout.
Take `COc1ccc(-c2nc(-c3nc4ccc(C)cc4[nH]3)c3ccccn23)cc1`: the GI50 in the assay with CCRF-CEM leukemia was 1.97 µM; with SF-268 CNS it was 2.8 µM; with NCI-H23 lung, 3.85 µM; with LOX IMVI melanoma, 3.03 µM; in the assay on A498 renal it was 2.47 µM; with HT29 colon, 3.36 µM. For the same compound, the GI50 with NCI-H460 lung was 2.28 µM; in the assay with NCI-H522 lung, 1.95 µM; in the assay with HOP-62 NSCLC, 3.72 µM. The TGI with CCRF-CEM leukemia is 6.28 µM; with SF-268 CNS, over 100 µM; in the assay with NCI-H23 lung, over 100 µM; in the assay with LOX IMVI melanoma it was 7.73 µM; with A498 renal, 9.65 µM; in the assay on HT29 colon it was over 100 µM. Besides, the TGI in the assay with NCI-H460 lung was 6.11 µM; in the assay with NCI-H522 lung, 4.63 µM; in the assay on HOP-62 NSCLC it was over 100 µM.
